Results taken from article PMC3914206.

Assays:
[1] = biological target: T1, panel of 442 kinases (Homo sapiens, UniProt Q9H2K8); assay type: binding; details: kinase TAOK3; compound concentration 10 µM
T1 construct: purchased KINOMEscan
T1 sequence (Q9H2K8 1-898): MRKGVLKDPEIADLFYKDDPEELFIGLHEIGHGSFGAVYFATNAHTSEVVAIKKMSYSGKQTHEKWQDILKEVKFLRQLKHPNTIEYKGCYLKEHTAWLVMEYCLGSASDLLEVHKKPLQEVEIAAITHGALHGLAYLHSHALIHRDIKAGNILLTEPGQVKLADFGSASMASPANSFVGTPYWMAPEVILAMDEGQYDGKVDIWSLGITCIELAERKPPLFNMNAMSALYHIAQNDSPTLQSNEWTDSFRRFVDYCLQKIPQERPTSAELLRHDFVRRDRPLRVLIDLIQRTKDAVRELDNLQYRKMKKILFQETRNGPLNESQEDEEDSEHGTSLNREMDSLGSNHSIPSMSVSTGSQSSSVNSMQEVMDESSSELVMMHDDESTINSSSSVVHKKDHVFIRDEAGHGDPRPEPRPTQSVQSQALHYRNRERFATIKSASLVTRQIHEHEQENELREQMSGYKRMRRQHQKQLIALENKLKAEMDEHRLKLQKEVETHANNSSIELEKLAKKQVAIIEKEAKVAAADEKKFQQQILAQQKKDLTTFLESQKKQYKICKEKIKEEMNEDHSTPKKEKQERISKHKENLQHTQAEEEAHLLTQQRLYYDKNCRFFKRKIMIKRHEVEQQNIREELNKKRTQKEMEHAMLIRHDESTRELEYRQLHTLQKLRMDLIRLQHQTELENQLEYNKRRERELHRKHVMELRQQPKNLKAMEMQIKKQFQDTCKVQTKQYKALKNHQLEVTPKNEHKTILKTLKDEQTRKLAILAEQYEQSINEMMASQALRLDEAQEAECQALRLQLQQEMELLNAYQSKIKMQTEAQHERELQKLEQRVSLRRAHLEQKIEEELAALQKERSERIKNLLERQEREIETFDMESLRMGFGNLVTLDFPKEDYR
Excerpt: (§1) We assessed the selectivity of members of this scaffold using the KINOMEscan methodology across a near comprehensive panel of 442 kinases [[18,27]].

[2] = biological target: T2, panel of 442 kinases (Homo sapiens, UniProt P10721, T670I/V559D); assay type: binding; details: Compound Concentration 10 µM
T2 construct: purchased KINOMEscan
Excerpt: as §1

T2 sequence (P10721 26-976 V559D/T670I): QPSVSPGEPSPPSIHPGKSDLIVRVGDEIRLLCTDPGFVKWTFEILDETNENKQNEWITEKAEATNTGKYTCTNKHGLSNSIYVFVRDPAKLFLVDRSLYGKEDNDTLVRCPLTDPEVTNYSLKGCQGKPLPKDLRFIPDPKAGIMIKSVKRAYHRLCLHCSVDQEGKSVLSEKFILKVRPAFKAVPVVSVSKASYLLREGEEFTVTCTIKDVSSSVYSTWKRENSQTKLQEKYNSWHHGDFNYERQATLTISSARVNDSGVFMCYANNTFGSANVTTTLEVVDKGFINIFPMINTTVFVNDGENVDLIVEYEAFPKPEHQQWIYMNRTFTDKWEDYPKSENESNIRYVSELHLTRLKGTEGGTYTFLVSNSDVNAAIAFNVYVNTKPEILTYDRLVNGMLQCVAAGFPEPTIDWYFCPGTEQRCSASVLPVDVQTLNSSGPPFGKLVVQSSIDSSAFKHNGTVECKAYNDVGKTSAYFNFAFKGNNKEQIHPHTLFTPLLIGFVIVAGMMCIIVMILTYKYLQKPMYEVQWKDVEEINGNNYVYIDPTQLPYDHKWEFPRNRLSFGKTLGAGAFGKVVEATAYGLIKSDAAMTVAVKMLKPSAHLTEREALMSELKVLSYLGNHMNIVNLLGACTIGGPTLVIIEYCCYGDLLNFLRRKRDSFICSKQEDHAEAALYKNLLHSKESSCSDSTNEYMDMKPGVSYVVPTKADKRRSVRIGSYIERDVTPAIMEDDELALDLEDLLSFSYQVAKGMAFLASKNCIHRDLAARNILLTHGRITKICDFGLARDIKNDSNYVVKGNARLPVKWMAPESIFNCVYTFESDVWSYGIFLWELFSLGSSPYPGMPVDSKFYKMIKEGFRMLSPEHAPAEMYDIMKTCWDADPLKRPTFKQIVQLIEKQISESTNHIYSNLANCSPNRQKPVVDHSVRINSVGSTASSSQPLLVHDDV

SMILES | % Ctrl, TAOK3 [1] | KINOMEscan: KIT(V559D,T670I) [2]
COc1cc(C(=O)N2CCC(N3CCN(C)CC3)CC2)ccc1Nc1ncc2c(n1)N1CCc3cccc(c31)C(=O)N2C [Compound 24] | 100 % Ctrl | 
CCOc1cc(C(=O)N2CCC(N3CCN(C)CC3)CC2)ccc1Nc1ncc2c(n1)N(C1CCCC1)c1ccccc1C(=O)N2C [Compound 26] | 82 % Ctrl | 100
COc1cc(C(=O)N2CCC(N3CCN(C)CC3)CC2)ccc1Nc1ncc2c(n1)N(C1CCCC1)c1ccccc1C(=O)N2C [Compound 25, 11-cyclopentyl-2-((2-methoxy-4-(4-(4-methylpiperazin-1-yl)piperidine-1-carbonyl)phenyl)amino)-5-methyl-5H-benzo[e]pyrimido[5,4-b][1,4]diazepin-6(11H)-one] | 100 % Ctrl | 80
COc1cc(C(=O)N2CCC(N3CCN(C)CC3)CC2)ccc1Nc1ncc2c(n1)N(C)c1ccccc1C(=O)N2C [15 (LRRK2-IN-1)] | 24 % Ctrl | 81
